Data published in PMC8533253, “Bis-thiobarbiturates as Promising Xanthine Oxidase Inhibitors: Synthesis and Biological Evaluation” (Biomedicines, 2021).

Tests used:
[1] = molecular target: T1, Xanthine oxidase (XO) (Bos taurus, UniProt P80457); assay: XO inhibitory assay (spectrophotometric quantification of uric acid formation at 295 nm); format: biochemical; details: read-out: XO inhibition (%)
T1 construct: purchased Sigma-Aldrich X4875
Method: XO inhibitory and antioxidant assays were performed in triplicate while antiproliferative assay was conducted in quadruplicate. For each assay, at least two independent experiments were performed. An initial screening at the concentration of 30 μM for all compounds under study was performed in each in vitro study. […] Half-maximal inhibitory concentration (IC50) studies were performed for drugs used as a reference and for the most promising bis-thiobarbiturate in XO inhibitory, antioxidant, and cytotoxicity assays.
The XO inhibitory activity was evaluated by spectrophotometric quantification of uric acid formation. The 50 mM dihydrogen phosphate buffer (pH 7.4) was used to dilute all solutions. For each assay performed, 50 μL of the test solution and 50 μL of the 0.1 U/mL XO (Sigma-Aldrich X4875, St. Louis, MO, USA) solution were added in each well of an Elisa microplate (96 wells) followed by 5 min of incubation at 37 °C. […] The reaction started with the addition of 150 μL of a xanthine solution (420 μM). The absorbance was recorded at a wavelength of 295 nm every minute for 10 min. To obtain only the absorbance associated with uric acid, a solution consisting of 50 μL of the test solution, 150 μL of the xanthine solution, and 50 μL of buffer were used as blank. […] For each compound, the percentage of enzyme inhibition was calculated according to the following formula:% of XO inhibition = [1 − (ABSsample − ABSblank of sample)/ABSnegative control] × 100
(§1) All in vitro results are expressed as mean values ± standard deviation (SD) of at least two independent determinations. The difference between groups was analyzed for each assay by Student’s t-test. The IC50 values were calculated by sigmoidal fitting analysis considering a 95% confidence interval.

[2] = Cytotoxicity/antiproliferative assay (MTT) on MCF-7; format: cell-based; details: human, MCF-7 cells (breast adenocarcinoma), read-out: Cytotoxicity (% cell viability at 30 µM) MCF-7
Method: (§2) XO inhibitory and antioxidant assays were performed in triplicate while antiproliferative assay was conducted in quadruplicate. For each assay, at least two independent experiments were performed. An initial screening at the concentration of 30 μM for all compounds under study was performed in each in vitro study. A second screening at 5 μM was performed for compounds that originated an inhibitory potential higher than 80% for the XO activity at 30 μM. Half-maximal inhibitory concentration (IC50) studies were performed for drugs used as a reference and for the most promising bis-thiobarbiturate in XO inhibitory, antioxidant, and cytotoxicity assays.
(§3) The cytotoxic potential of the compounds being studied was evaluated by quantifying the extent of the reduction of 3-(4,5-dimethylthiazol-2-yl)-2,5-diphenyltetrazolium bromide (MTT, VWR, Radnor, PA, USA) on tumor cell lines of the colon (Caco-2) and breast (MCF-7) adenocarcinoma and non-tumor human dermal fibroblasts (NHDF). All cell lines were obtained from the American Type Culture Collection (ATCC, Manassas, VA, USA) and were maintained in 75 cm^2 culture flasks in a humidified air incubator with 5% CO2 at 37 °C. NHDF cells have grown in RPMI 1640 medium (Sigma-Aldrich, St. Louis, MO, USA) supplemented with 10% fetal bovine serum (FBS), 10 mM 4-(2-hydroxyethyl)-1-piperazineethanesulfonic acid (HEPES), 2 mM L-glutamine, 1 mM sodium pyruvate, and 1% antibiotic/antimycotic (Ab: 10,000 units/mL penicillin G, […] streptomycin and 25 μg/mL amphotericin B). MCF-7 cells were cultured in high-glucose Dulbecco’s modified Eagle medium (DMEM, Sigma-Aldrich, St. Louis, MO, USA) supplemented with 10% FBS, and 1% Ab. The Caco-2 cell line was cultured in a high glucose DMEM supplemented with 20% FBS and 1% of the antibiotic mixture (Sp: 10,000 units/mL penicillin G and […] of streptomycin). For the assay, cells were seeded in 96-well plates (2 × 10^4 cells/mL) in the culture medium. After 48 h of adherence, cells were treated with the test solutions and incubated for 72 h. […] Untreated cells were used as a negative control and 5-FU as the positive control. Following incubation, the medium was removed and replaced with a fresh incomplete culture medium (without FBS and Ab or Sp) and MTT solution [5 mg/mL in phosphate buffer saline (PBS)]. After further incubation for 4 h at 37 °C, the medium with MTT was removed, formazan crystals were dissolved in DMSO, and the absorbance was read at 570 nm. Results were expressed as the relative cell proliferation in comparison with the negative control cells.
as §1

[3] = Cytotoxicity assay (MTT) on NHDF; format: cell-based, human; details: human, NHDF cells (non-tumor human dermal fibroblasts), 30 µM, 72 h, MTT; read-out: Cytotoxicity (% cell viability at 30 µM) NHDF
Method: as §2, §3, §1

[4] = Antioxidant assay, DPPH method; details: 60 min
Method: as §2
Antioxidant potential was spectrophotometrically evaluated by the 2,2-diphenyl-1-picrylhydrazyl (DPPH, Sigma-Aldrich, St. Louis, MO, USA) method. All solutions and dilutions were prepared in 99.5% ethanol before each experiment. For each assay, 100 μL of the test solution and 100 μL of DPPH solution (0.2 mM) were added to each well of a 96 wells Elisa microplate. […] After 60 min of incubation in dark at rt, the capacity of each compound to reduce DPPH was followed by measuring the absorbance at 517 nm. Ethanol was used as a negative control and Trolox as the positive control. To discount the absorbance of each compound at 517 nm, a blank was performed with 100 μL of each test compound and 100 μL of ethanol. The antioxidant capacity of each sample was calculated according to the following formula:% DPPH scavenging = [1 − (ABSsample − ABSblank of sample)/ABSnegative control] × 100
as §1

[5] = Cytotoxicity/antiproliferative assay (MTT) on Caco-2; format: cell-based; details: human, read-out: Cytotoxicity (% cell viability at 30 µM) Caco-2
Method: as §2, §3, §1

T1 sequence (P80457 whole entry): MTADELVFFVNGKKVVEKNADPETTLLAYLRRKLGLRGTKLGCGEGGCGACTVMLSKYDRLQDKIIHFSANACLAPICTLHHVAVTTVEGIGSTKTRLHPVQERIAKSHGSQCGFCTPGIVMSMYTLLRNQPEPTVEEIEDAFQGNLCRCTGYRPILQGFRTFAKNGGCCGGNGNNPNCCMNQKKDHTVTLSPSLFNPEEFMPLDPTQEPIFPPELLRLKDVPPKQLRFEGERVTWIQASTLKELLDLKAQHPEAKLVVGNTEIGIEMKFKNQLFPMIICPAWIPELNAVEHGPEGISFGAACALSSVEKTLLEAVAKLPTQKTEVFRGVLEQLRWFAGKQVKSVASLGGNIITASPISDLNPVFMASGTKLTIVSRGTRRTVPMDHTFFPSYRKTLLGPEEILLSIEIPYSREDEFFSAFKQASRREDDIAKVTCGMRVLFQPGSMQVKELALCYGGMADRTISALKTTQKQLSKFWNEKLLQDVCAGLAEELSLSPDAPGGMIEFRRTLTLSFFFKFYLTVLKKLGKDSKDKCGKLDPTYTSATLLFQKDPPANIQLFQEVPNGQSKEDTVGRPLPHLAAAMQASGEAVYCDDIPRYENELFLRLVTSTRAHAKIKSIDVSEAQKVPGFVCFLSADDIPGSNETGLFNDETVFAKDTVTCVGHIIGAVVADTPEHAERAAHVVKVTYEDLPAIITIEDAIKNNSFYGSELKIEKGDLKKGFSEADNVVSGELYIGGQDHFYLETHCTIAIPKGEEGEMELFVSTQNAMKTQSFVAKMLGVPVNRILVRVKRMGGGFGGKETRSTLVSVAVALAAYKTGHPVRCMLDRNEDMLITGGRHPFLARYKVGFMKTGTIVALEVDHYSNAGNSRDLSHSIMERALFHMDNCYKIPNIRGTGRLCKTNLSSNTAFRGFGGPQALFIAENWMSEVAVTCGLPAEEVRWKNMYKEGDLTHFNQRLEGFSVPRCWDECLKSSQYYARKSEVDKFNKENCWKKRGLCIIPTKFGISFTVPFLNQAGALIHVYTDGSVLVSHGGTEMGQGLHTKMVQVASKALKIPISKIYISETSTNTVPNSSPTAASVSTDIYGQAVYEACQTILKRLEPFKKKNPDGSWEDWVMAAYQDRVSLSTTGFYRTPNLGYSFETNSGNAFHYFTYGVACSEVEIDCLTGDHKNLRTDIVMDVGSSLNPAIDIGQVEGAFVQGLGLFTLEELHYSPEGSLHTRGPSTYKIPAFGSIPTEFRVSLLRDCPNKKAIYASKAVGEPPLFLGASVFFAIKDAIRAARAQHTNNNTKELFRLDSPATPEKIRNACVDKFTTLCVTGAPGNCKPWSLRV

Compound | inhibition at 30 µM [1] [%] | viability at 72 h, 30 µM [2] [%] | viability at 72 h, 30 µM [3] [%] | melting point | DPPH (% scavenging at 30 µM) [4] [%] | viability at 72 h, 30 µM [5] [%] | inhibition at 5 µM [1] [%] | IC50 ([4]; read-out: DPPH Scavenging IC50) [µM]
CCn1c(O)c(C(c2cc(O)ccc2[N+](=O)[O-])c2c(O)n(CC)c(=S)n(CC)c2=O)c(=O)n(CC)c1=S [Compound 16, 5,5′-((5-Hydroxy-2-nitrophenyl)methylene)bis(1,3-diethyl-6-hydroxy-2-thioxo-2,3-dihydropyrimidin-4(1H)-one)] | 61.4 | 91.1 ± 2 | 60.7 ± 1.72 | 167 to 169 °C | 31.35 ± 0.91 | 95.4 ± 3.3 | – | –
O=c1[nH]c(O)c(C(c2ccc([N+](=O)[O-])cc2)c2c(O)[nH]c(=O)[nH]c2=O)c(=O)[nH]1 | – | – | – | 227 °C (dec.) | – | – | – | –
CCn1c(O)c(C(c2cc3c(cc2[N+](=O)[O-])OCO3)c2c(O)n(CC)c(=S)n(CC)c2=O)c(=O)n(CC)c1=S [Compound 17, 5,5′-((6-Nitrobenzo[d][1,3]dioxol-5-yl)methylene)bis(1,3-diethyl-6-hydroxy-2-thioxo-2,3-dihydropyrimidin-4(1H)-one)] | 90.8 ± 2.87 | 86.6 ± 5.87 | 68.9 ± 9.33 | 148 to 149 °C | 40.90 ± 0.65 | 88.7 ± 7.85 | 55.2 ± 1.63 | –
O=c1[nH]cc(F)c(=O)[nH]1 [Compound 5-FU, 5-fluorouracil, reference compound] | – | 45.9 ± 4.72 | 20.9 ± 0.83 | – | – | 37.1 ± 1.51 | – | –
Cc1c(C)c2c(c(C)c1O)CCC(C)(C(=O)O)O2 (stereo not drawn) [Trolox, reference compound] | – | – | – | – | 54.86 ± 0.98 | – | – | 23.8 ± 2.13
CCn1c(O)c(C(c2ccc(OC)cc2)c2c(O)n(CC)c(=S)n(CC)c2=O)c(=O)n(CC)c1=S [Compound 10, 5,5′-((4-Methoxyphenyl)methylene)bis(1,3-diethyl-6-hydroxy-2-thioxo-2,3-dihydropyrimidin-4(1H)-one)] | 23.5 | 100 ± 13 | – | 139 to 140 °C | 38.12 ± 1.56 | 62.6 ± 7.74 | – | –
Cc1nc(-c2ccc(OCC(C)C)c(C#N)c2)sc1C(=O)O [Febuxostat, febuxostat, reference compound] | 95 | – | – | – | – | – | 93.9 ± 2.84 | –
CCn1c(O)c(C(c2ccc(N(C)C)cc2[N+](=O)[O-])c2c(O)n(CC)c(=S)n(CC)c2=O)c(=O)n(CC)c1=S [Compound 14, 5,5′-((4-(Dimethylamino)-2-nitrophenyl)methylene)bis(1,3-diethyl-6-hydroxy-2-thioxo-2,3-dihydropyrimidin-4(1H)-one)] | 90.7 ± 0.71 | 88.1 ± 3.25 | 80.1 ± 7.69 | 143 to 145 °C | 28.04 ± 0.25 | 97.2 ± 2.97 | 56.3 ± 1.21 | –
CCn1c(O)c(C(c2ccc([N+](=O)[O-])cc2[N+](=O)[O-])c2c(O)n(CC)c(=S)n(CC)c2=O)c(=O)n(CC)c1=S [Compound 15, 5,5′-((2,4-Dinitrophenyl)methylene)bis(1,3-diethyl-6-hydroxy-2-thioxo-2,3-dihydropyrimidin-4(1H)-one)] | 14.9 | 91.2 ± 4.26 | 91.2 ± 7.77 | 169 to 170 °C | 32.33 ± 0.48 | 96.9 ± 4.73 | – | –
CCn1c(O)c(C(c2ccc(NC(C)=O)cc2)c2c(O)n(CC)c(=S)n(CC)c2=O)c(=O)n(CC)c1=S [Compound 9, N-(4-(Bis(1,3-diethyl-6-hydroxy-4-oxo-2-thioxo-1,2,3,4-tetrahydropyrimidin-5-yl)methyl)phenyl)acetamide] | 45.6 | 90.2 ± 5.7 | 81.3 ± 8.87 | 178 to 179 °C | 39.63 ± 2.26 | 67.5 ± 9.4 | – | –
Oc1ncnc2[nH]ncc12 [Allo, allopurinol, reference compound] | 88.5 | – | – | – | 0.48 ± 0.21 | – | 26.9 ± 0.82 | –
